# “Also recorded” adds a separate entry of the source.
# Assays:
# [1] = system: LNCaP cells; experiment: HPLC quantitation of polyamine and acetyl polyamine levels in LNCaP cells; type: cell-based, human
# Description: This method is routinely used in the analytical laboratory of the core facility of Cancer Centers and was accessible for quantitative assays necessary for the PK/PD determinations. […] Each data point was an average of two determinations where sample cell pellets were collected from three independent experiments.
# [2] = system: LNCaP cells; experiment: DCF dye oxidation assay of androgen (R1881) induced ROS production; type: cell-based, human
# Procedure: SSAT induction is a major source of androgen induced oxidative stress. In order to confirm that SSAT was the major source of androgen induced oxidative stress, we developed and used a stable LNCaP cell clone transfected with plasmid transcribing siRNA designed to silence SSAT mRNA expression. The SSAT mRNA level in these cells was determined by qRT-PCR method. In the cells transfected only with the vector, the SSAT mRNA level increased by over 8-fold after 96 h treatment with R1881, whereas in cells stably transfected with SSAT siRNA (si22), R1881 under similar treatment condition induced less than 2-fold increase in the SSAT transcript, showing over 75% silencing of SSAT mRNA expression. The ROS production induced by androgen analog R1881 in these cells was measured by DCF dye oxidation assay. The green fluorescence of oxidized DCF in androgen treated LNCaP cells was shown. The effect of SSAT silencing on the R1881 induced ROS production measured by DCF assay was also shown. The ratio of DCF fluorescence (green):DNA fluorescence (blue) for each of the treated well of a 96 well plate normalized to that of the average of control untreated wells represents the ROS level per cell relative to that in control untreated cells. The data points are the mean of numbers obtained from repeat experiments using thirty identically treated wells.
# Each data point was an average of readings from six wells repeated twice in triplicates. […] The ROS levels of all CPC-200 pretreated cells were normalized to the ROS levels of cells treated with CPC-200 alone.
# [3] = system: prostate tissue in TRAMPxFVB animals; experiment: In vivo hydroethidine (HEt) dye oxidation in prostate tissue; parameters: species or system mouse
# Description: In parallel to standardizing and validating quantitation of cellular fluorescence intensities with the Bioimager system, we also standardized conditions for fluorescence dye oxidation in animal tissues in vivo and in human tissue ex vivo using standard fluorescence microscopy. For these studies, another dye hydroethidine (HEt) was used. HEt in reduced form is colorless. It is oxidized by the ROS superoxide to ethidium (E^+). The intense fluorescence of E^+ion can be monitored at 488 excitation/595 emission frequencies at sub-nanomolar concentrations. […] After sacrifice, animals were exsanguinated to reduce fluorescence interference from blood hemoglobin. […] Unlike what observed in DCF dye oxidation assay in LNCaP cells where nuclei are more fluorescent than are the cytoplasms (FIG. 5B), the HEt dye fluorescence in the cytoplasm of the normal prostatic lumen is more than that in the nuclei. […] This is ascertained when the fluorescence intensities of HEt dye in the human tumor and normal tissue ROS are quantitated, as described herein.
# We standardized the in vivo method of Hydroethidine (HEt) dye oxidation. […] Prostate tissues in paraffin blocks were sectioned on a microtome, thin sections were de-paraffinized and observed under a fluorescence microscope at 480 nm excitation and 600 nm emission wavelengths. […]
# [4] = system: TRAMP tumors; experiment: Chemopreventive efficacy against TRAMP tumors (tumor development, survival, PET-CT); type: in vivo, mouse
# Procedure: Mice are treated with the optimal dose regimen and A cohort of 10 mice from each treatment will be euthanized at 24 weeks of age, when primary tumors are evident in the control group and the tumors collected for pharmacology, necropsy and other toxicity and tumor burden analyses. […] The remaining 20 mice per condition were followed for survival. Body weights and tumor volumes were measured once weekly throughout the study. A cohort of 10 mice in this treatment group is also monitored over the course of drug treatment by PET-CT scan for tumor growth and metastases. Each mouse is injected with ^124I labeled NM-404 per standard protocol and imaged on the microPET-microCT scanner.
# [5] = Observed adverse side effects of CPC-200 treatment in vivo
# [6] = in vivo, iv
# [7] = target: T1, androgen receptor (Homo sapiens, UniProt P10275, T878A); details: human LNCaP prostate cancer cells; cited from earlier work
# T1 construct: androgen receptor in human LNCaP prostate cancer cells in laboratory studies; host or cells: LNCaP
# T1 sequence (P10275 1-920 T878A): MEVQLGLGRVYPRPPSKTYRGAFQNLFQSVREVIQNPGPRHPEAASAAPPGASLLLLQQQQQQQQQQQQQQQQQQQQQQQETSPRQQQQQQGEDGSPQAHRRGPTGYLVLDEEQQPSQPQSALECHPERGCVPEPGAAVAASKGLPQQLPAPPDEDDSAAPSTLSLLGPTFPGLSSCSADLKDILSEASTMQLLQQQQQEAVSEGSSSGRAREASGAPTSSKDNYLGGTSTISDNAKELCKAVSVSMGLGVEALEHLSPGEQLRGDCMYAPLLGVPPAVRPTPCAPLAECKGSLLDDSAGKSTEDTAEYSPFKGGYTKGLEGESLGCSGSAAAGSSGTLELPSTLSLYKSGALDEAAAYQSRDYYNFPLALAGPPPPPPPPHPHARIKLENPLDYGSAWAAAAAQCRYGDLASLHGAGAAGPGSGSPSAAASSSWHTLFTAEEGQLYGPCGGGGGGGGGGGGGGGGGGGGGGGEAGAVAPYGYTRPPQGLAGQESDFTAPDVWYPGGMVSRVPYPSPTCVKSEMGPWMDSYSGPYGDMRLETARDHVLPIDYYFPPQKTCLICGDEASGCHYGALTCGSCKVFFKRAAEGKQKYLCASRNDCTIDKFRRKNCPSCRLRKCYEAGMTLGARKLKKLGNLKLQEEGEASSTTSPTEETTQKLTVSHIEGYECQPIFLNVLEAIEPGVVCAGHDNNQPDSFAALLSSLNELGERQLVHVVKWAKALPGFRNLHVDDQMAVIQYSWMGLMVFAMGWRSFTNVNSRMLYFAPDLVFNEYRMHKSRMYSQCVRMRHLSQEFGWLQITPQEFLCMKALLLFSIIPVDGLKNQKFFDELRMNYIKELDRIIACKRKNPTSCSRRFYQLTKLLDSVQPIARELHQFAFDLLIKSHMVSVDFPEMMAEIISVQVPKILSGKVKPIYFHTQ
# [8] = system: cytochrome P450 (CYP) class of enzymes; details: compared with I3C; cited from earlier work
# [9] = system: prostate cancer cells; details: cited from earlier work
molecule,measurement,setting,value
"N,N′-bis(butadienyl)-1,4-butanediamine [CPC-200]",R1881 induced increase in putrescine and spermidine,[1]; 24 h CPC-200 pretreatment of R1881-treated cells,almost completely blocked
same,effect on most cellular polyamine levels,[1]; CPC-200 treatment alone,little or no significant effect
same,R1881 (≧1 nM) induced ROS production,"[2]; LNCaP cells, 24 h pretreatment with 25 μM CPC-200, R1881 96 h",effectively blocked
same,cellular ROS levels,"[2]; LNCaP cells, CPC-200 treatment alone (25 μM)",minor decrease
same,androgen-induced oxidative stress in cultured androgen-dependent human prostate cancer cells,[2]; summary statement,significantly reduces oxidative stress; also recorded: almost completely blocked
same,oxidative stress in prostate tissue / pre-neoplastic lesions in vivo,"[3]; TRAMP model, summary statement",significantly reduces oxidative stress; also recorded: unambiguous reduction in oxidative stress
same,HEt reporter dye monitored oxidation in prostatic tissue,"[3]; TRAMPxFVB mice, six administrations of 25 mg/kg CPC-200 i.p. once every two weeks, HEt 8 mg/kg i.v.",no significant HEt reporter dye monitored oxidation is detected
same,overall survival,[4]; TRAMP mice,greatly increases; also recorded: markedly increased
same,time to spontaneous prostate tumor development,[4]; TRAMP model,markedly delays; also recorded: greatly delayed
same,prostate tumor by PET-CT scan,"[4]; TRxF male mice, scans at age 8, 12, 18 and 24 weeks",no prostate tumor
same,adverse side effects,[5],without any observable adverse side effects
"CCN1c2cc(N)ccc2-c2ccc(N)cc2C1c1ccccc1 (centres unmarked) [HEt, hydroethidine]",safety of i.v. injection,[6],can be safely injected i.v.
"c1ccc2c(Cc3c[nH]c4ccccc34)c[nH]c2c1 [DIM, 3,3′-Diindolylmethane]",androgen receptor activation,[7],block androgen receptor activation
same,binding of dihydrotestosterone (DHT) to the androgen receptor,[7],decreased binding
same,induction of cytochrome P450 (CYP) class of enzymes,[8],to a lesser extent than does I^3C
same,PSA,[9],downregulation of PSA
same,proliferation of prostate cancer cells,[9]; in vitro and in a mouse xenograft model,inhibition of proliferation
